Source: patent US5952310A, “Glycopeptide hexapeptides” (priority 1998, dated 1999)

Tests used:
[1] = test system: Staphylococcus haemolyticus 415; assay: MIC, standard broth micro-dilution assay, SH 415; type: cell-based
[2] = test system: Staphylococcus haemolyticus 105; assay: MIC, standard broth micro-dilution assay, SH 105; type: cell-based
[3] = test system: Staphylococcus epidermidis 270
[4] = test system: Staphylococcus aureus 447; assay: MIC, standard broth micro-dilution assay, SA447; type: cell-based
[5] = test system: Staphylococcus aureus 489; assay: MIC, standard broth micro-dilution assay, SA489; type: cell-based
[6] = test system: Staphylococcus aureus 446
Method: (§1) The minimal inhibitory concentrations (MICs) were determined using a standard broth micro-dilution assay.

[7] = test system: Streptococcus pneumoniae P1
Method: as §1

[8] = test system: Enterococcus faecium and faecalis (RESISTANT); conditions: geometric mean of 4-6 isolates
Method: as §1

[9] = test system: Streptococcus pyogenes C203; assay: MIC, standard broth micro-dilution assay, SPY C203; type: cell-based
[10] = test system: Enterococcus faecium and faecalis (SENSITIVE); assay: MIC, standard broth micro-dilution assay, sensitive enterococci; type: cell-based; conditions: geometric mean of 4-6 isolates

Compound	Minimal Inhibitory Concentration (MIC) SH 415 [1]	Minimal Inhibitory Concentration (MIC) SH 105 [2]	Minimal Inhibitory Concentration (MIC) SE 270 [3]	Minimal Inhibitory Concentration (MIC) SA 447 [4]	Minimal Inhibitory Concentration (MIC) SA 489 [5]	Minimal Inhibitory Concentration (MIC) SA 446 [6]	Minimal Inhibitory Concentration (MIC) SPN P1 [7]	Minimal Inhibitory Concentration (MIC) Resistant [8]	Minimal Inhibitory Concentration (MIC) SPY C203 [9]	Minimal Inhibitory Concentration (MIC) Sensitive [10]
CC1OC(OC2c3ccc(c(Cl)c3)Oc3cc4cc(c3OC3OC(CO)C(O)C(O)C3OC3CC(C)(NCc5ccc(-c6ccc(Cl)cc6)cc5)C(O)C(C)O3)Oc3ccc(cc3Cl)C(O)C(N)C(=O)NC(CC(N)=O)C(=O)NC4C(=O)NC3C(=O)NC2C(=O)NC(C(=O)O)c2cc(O)cc(O)c2-c2cc3ccc2O)CC(C)(N)C1O (stereo not drawn) [Example 6, N^DISACC -(p-(p-CHLOROPHENYL)-BENZYL)DESLEUCYL-A82846B]	1	0.5	0.5	1	2	2	0.25	6.7	≤ .06	2.6
CC1OC(OC2c3ccc(c(Cl)c3)Oc3cc4cc(c3OC3OC(CO)C(O)C(O)C3OC3CC(C)(NCCCCCCCCc5ccccc5)C(O)C(C)O3)Oc3ccc(cc3Cl)C(O)C(N)C(=O)NC(CC(N)=O)C(=O)NC4C(=O)NC3C(=O)NC2C(=O)NC(C(=O)O)c2cc(O)cc(O)c2-c2cc3ccc2O)CC(C)(N)C1O (stereo not drawn) [Example 8, N^DISACC -(8-PHENYL-n-OCTYL)DESLEUCYL-A82846B]	2	0.25	1	2	1	4	0.125	5.7	0.125	0.76
CC1OC(OC2c3ccc(c(Cl)c3)Oc3cc4cc(c3OC3OC(CO)C(O)C(O)C3OC3CC(C)(N)C(O)C(C)O3)Oc3ccc(cc3Cl)C(O)C(N)C(=O)NC(CC(N)=O)C(=O)NC4C(=O)NC3C(=O)NC2C(=O)NC(C(=O)O)c2cc(O)cc(O)c2-c2cc3ccc2O)CC(C)(N)C1O (stereo not drawn) [Example 1, DESLEUCYL-A82846B]	> 64	> 64	64	64	32	64	–	> 128	4	> 128
CC1OC(OC2c3ccc(c(Cl)c3)Oc3cc4cc(c3OC3OC(CO)C(O)C(O)C3OC3CC(C)(NCc5ccc(Oc6ccccc6)cc5)C(O)C(C)O3)Oc3ccc(cc3Cl)C(O)C(N)C(=O)NC(CC(N)=O)C(=O)NC4C(=O)NC3C(=O)NC2C(=O)NC(C(=O)O)c2cc(O)cc(O)c2-c2cc3ccc2O)CC(C)(N)C1O (stereo not drawn) [Example 3, N^DISACC -(p-PHENOXYBENZYL)-DESLEUCYL-A82846B]	1	2	0.5	1	1	2	≤ .06	45	≤ 0.06	14
CC1OC(OC2c3ccc(c(Cl)c3)Oc3cc4cc(c3OC3OC(CO)C(O)C(O)C3OC3CC(C)(NCc5ccc(Cl)cc5)C(O)C(C)O3)Oc3ccc(cc3Cl)C(O)C(N)C(=O)NC(CC(N)=O)C(=O)NC4C(=O)NC3C(=O)NC2C(=O)NC(C(=O)O)c2cc(O)cc(O)c2-c2cc3ccc2O)CC(C)(N)C1O (stereo not drawn) [Example 2, N^DISACC -(p-CHLOROBENZYL)-DESLEUCYL-A82846B]	4	2	2	2	0.5	4	–	> 81	≤ 0.06	5.2
CC1OC(OC2c3ccc(c(Cl)c3)Oc3cc4cc(c3OC3OC(CO)C(O)C(O)C3OC3CC(C)(NCc5ccc(-c6ccccc6)cc5)C(O)C(C)O3)Oc3ccc(cc3Cl)C(O)C(N)C(=O)NC(CC(N)=O)C(=O)NC4C(=O)NC3C(=O)NC2C(=O)NC(C(=O)O)c2cc(O)cc(O)c2-c2cc3ccc2O)CC(C)(N)C1O (stereo not drawn) [Example 4, N^DISACC -(p-PHENYLBENZYL)-DESLEUCYL-A82846B]	1	1	1	1	0.25	2	0.125	16	≤ 0.06	3.4
CC1OC(OC2c3ccc(c(Cl)c3)Oc3cc4cc(c3OC3OC(CO)C(O)C(O)C3O)Oc3ccc(cc3Cl)C(O)C(N)C(=O)NC(CC(N)=O)C(=O)NC4C(=O)NC3C(=O)NC2C(=O)NC(C(=O)O)c2cc(O)cc(O)c2-c2cc3ccc2O)CC(C)(N)C1O (stereo not drawn) [Example 7, N^DISACC -DES-EPIVANCOAMINYL-DESLEUCYL-A82846B]	> 64	64	> 64	64	8	32	2	> 128	4	56
CCCCc1ccc(CNC2(C)CC(OC3C(Oc4c5cc6cc4Oc4ccc(cc4Cl)C(OC4CC(C)(N)C(O)C(C)O4)C4NC(=O)C(NC(=O)C6NC(=O)C(CC(N)=O)NC(=O)C(N)C(O)c6ccc(c(Cl)c6)O5)c5ccc(O)c(c5)-c5c(O)cc(O)cc5C(C(=O)O)NC4=O)OC(CO)C(O)C3O)OC(C)C2O)cc1 (stereo not drawn) [Example 5, N^DISACC -(p-n-BUTYLBENZYL)-DESLEUCYL-A82846B]	2	1	1	2	1	1	0.25	108	0.125	9.2
